This is an account of results in publication PMC4104029, “Mechanism of Action of Compound-13: An α1-Selective Small Molecule Activator of AMPK” (Chemistry & Biology, 2014).

The target of the experiment is T1, PP2Cα (Homo sapiens, UniProt P35813).
T1 construct: purchased Division of Signal Transduction Therapy (DSTT, Dundee); host or cells: E. coli
Briefly: PP2Cα activity on synthetic peptide substrate. It counts as biochemical. The note with it: synthetic peptide substrate EFLR(pT)SCGS. Here is the method:
AMPKα1β1γ1 or α2β1γ1 was dephosphorylated in vitro with PP2Cα in 50 mM HEPES pH 7.4, 10 mM MgCl2, 0.1 mM EGTA, 0.03% BRIJ-35, 1 mM DTT, and the indicated compounds for 15 min at 30°C. Mg^2+ was omitted from the negative control. Reactions were terminated by 20-fold dilution and storage on ice. AMPK activity was assayed under standard conditions in the presence of saturating AMP (200 μM). The results are expressed as percentage activity of the negative control. In control experiments, PP2Cα activity was determined in reactions containing 50 mM TES pH 7.4, 0.1 mM EGTA, 25 mM MgCl2, 0.01% BRIJ-35, 0.02% (v/v) 2-mercaptoethanol, and 100 μM EFLR(pT)SCGS (168–176 AMPKα2). Liberated phosphate was determined using malachite green ([Baykov et al., 1988]).
Supplemental Figure Legends:
Figure S1, related to Figures 1-3. […] (A) Heterotrimeric AMPK complexes (10 ng) produced in both Sf9 (Sigma and Signalchem) and E.coli (in our laboratory) were analysed by Western blotting using isoform specific antibodies. […]
Figure S3, related to Figure 2. […] Results are expressed as mean Pi incorporated in nmol.min-1.mg-1 ± SD. […] Results are expressed as fold increase in activity relative to controls in the absence of compound ± SD.
(E) C2 and AMP displace a GST-AMPKγ2 subunit fusion from ATP-γ-Sepharose. […] The presence of eluted AMPKγ2 was analysed by SDS-PAGE and staining with colloidal Coomassie. […]

T1 sequence (P35813 whole entry, species assumed): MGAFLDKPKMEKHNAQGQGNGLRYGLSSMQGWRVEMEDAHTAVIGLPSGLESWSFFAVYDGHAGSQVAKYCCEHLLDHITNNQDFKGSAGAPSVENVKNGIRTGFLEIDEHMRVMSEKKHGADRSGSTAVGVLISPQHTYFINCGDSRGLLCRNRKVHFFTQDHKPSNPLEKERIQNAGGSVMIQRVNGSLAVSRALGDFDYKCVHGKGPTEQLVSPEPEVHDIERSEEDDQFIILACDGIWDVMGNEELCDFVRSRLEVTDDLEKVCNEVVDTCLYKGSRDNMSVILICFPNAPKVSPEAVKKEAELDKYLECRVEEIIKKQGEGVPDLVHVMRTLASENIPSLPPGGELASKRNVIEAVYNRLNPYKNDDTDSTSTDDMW

In the case of `O=P(O)(O)c1ccc(-c2cc(O)on2)o1` [Compound C2, 5-(5-hydroxyl-isoxazol-3-yl)-furan-2-phosphonic acid], the “direct effect on PP2Cα activity” value is “no direct effect”.
